Test in all cases: Substrate depletion assay (UA)
In data set [1] the test system is Krystexxa (pegloticase), PEGylated chimeric pig/baboon uricase. It is filed as biochemical, pig and baboon (chimera). Conditions: PB, pH 7.4, typically 30° C.; UA 23.8-400 μM; 292 nm. Here is the method: Five uricases (SEQ ID NOs: 27, 28, 29, 32, and 34) were evaluated for neutral pH solubility characteristics and activity in terms of product formation (H2O2) at pH 9.0 and 7.4. In the product formation assay, allantoin formation is proportional to H2O2 formation, which is linked to colorimetric horseradish peroxidase-catalyzed, colorimetric reaction. The appearance of hydrogen peroxide can be measured by an increase in absorbance at 540 nm. Product formation assays were proportional to substrate depletion assays in terms of uricase activity. […] The substrate depletion assays were much better for assessing kinetic parameters like Vmax and Km.
Substrate depletion (UA) is another common method for assessing uricase activity. In the substrate depletion assay, uricase, UA, and phosphate buffer were incubated for 1 hour at the stated temperature (typically 30° C.). Uricase was then diluted to 1 μg/mL and combined with a curve of UA (400 μM diluted down 1:1.6 to 23.8 μM) in 0.1M phosphate buffer (PB), pH 7.4. In some assays 1 mM DTT was added to the assay. The Molecular Devices reader temperature was set to the 30° C. Absorbance measurements at 292 nm were captured every 20 seconds for a period of 10 minutes. The rate of UA degradation was calculated by SoftMax Pro software. Vmax and Km were calculated for these uricases (see Table 5 below). […]

For data set [2], the target named is T1, Arthrobacter globiformis uricase, wt, SEQ ID NO: 27 (amino terminal His tag) (Arthrobacter globiformis, UniProt D0VWQ1).
T1 sequence (D0VWQ1 1-302): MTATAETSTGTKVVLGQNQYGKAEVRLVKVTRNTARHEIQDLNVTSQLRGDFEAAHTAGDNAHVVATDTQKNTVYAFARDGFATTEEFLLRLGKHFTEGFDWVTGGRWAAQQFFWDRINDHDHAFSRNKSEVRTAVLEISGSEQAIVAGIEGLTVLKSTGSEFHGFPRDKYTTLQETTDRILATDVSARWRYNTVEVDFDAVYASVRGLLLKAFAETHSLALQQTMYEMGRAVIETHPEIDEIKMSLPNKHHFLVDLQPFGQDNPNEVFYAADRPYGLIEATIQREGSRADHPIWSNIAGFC
The data set is classed as biochemical. The method, then: (§1) An initial screening paradigm was used to identify candidates for further optimization. The 8 uricase sequences described in Example 1 were cloned with an amino terminal His tag and expressed in E. coli. Each uricase construct was evaluated for expression level and in particular, soluble expression. Uricase expressing E. coli were lysed and soluble material was separated from insoluble (pellet) material. The lysates were separated by SDS-PAGE and the proteins were visualized by Coomassie blue staining. […] The pig-baboon chimera appears to express almost entirely in the pellet (P) (insoluble) fraction (FIG. 1, Lane 9). Cytosolic soluble (S) expression was considered a favorable property. […] Protein yield was determined by measuring the absorbance at 280 nm. […]
(§2) Five uricases (SEQ ID NOs: 27, 28, 29, 32, and 34) were evaluated for neutral pH solubility characteristics and activity in terms of product formation (H2O2) at pH 9.0 and 7.4. […] The appearance of hydrogen peroxide can be measured by an increase in absorbance at 540 nm. […]
(§3) Substrate depletion (UA) is another common method for assessing uricase activity. […] The Molecular Devices reader temperature was set to the 30° C. Absorbance measurements at 292 nm were captured every 20 seconds for a period of 10 minutes. The rate of UA degradation was calculated by SoftMax Pro software. Vmax and Km were calculated for these uricases (see Table 5 below). […]

Data set [3] concerns the target Deinococcus geothermalis uricase, SEQ ID NO: 28 (amino terminal His tag) (Deinococcus geothermalis, UniProt Q1J399). It is filed as biochemical.
Protocol: (§4) Substrate depletion (UA) is another common method for assessing uricase activity. In the substrate depletion assay, uricase, UA, and phosphate buffer were incubated for 1 hour at the stated temperature (typically 30° C.). […] In some assays 1 mM DTT was added to the assay. The Molecular Devices reader temperature was set to the 30° C. Absorbance measurements at 292 nm were captured every 20 seconds for a period of 10 minutes. The rate of UA degradation was calculated by SoftMax Pro software. Vmax and Km were calculated for these uricases (see Table 5 below).
Data set [4] concerns Consensus uricase, SEQ ID NO: 34 (amino terminal His tag). The data set is classed as biochemical. As to conditions: PB, pH 7.4, typically 30° C.; UA 23.8-400 μM; 292 nm.
From the text: After this process, the following 7 candidate sequences were chosen for further investigation: Arthrobacter globiformis uricase (SEQ ID NO: 27), Deinococcus geothermalis uricase (SEQ ID NO: 28), Deinococcus radiodurans uricase (SEQ ID NO: 29), Granulicella tundricola uricase (SEQ ID NO: 30), Solibacter usitatus uricase (SEQ ID NO: 31), Terriglobus saanensis uricase (SEQ ID NO: 32) and Kyrpidia tusciae uricase (SEQ ID NO: 33). Additionally, as an 8th sequence, a consensus uricase sequence was also devised from the alignment of many uricase sequences. The consensus sequence is represented by SEQ ID NO: 34.
An initial screening paradigm was used to identify candidates for further optimization. […] Each uricase construct was evaluated for expression level and in particular, soluble expression. […] Protein yield was determined by measuring the absorbance at 280 nm. […]
as §2
Substrate depletion (UA) is another common method for assessing uricase activity. […] The Molecular Devices reader temperature was set to the 30° C. Absorbance measurements at 292 nm were captured every 20 seconds for a period of 10 minutes. […]

Data set [5] has as its system O=c1[nH]c(=O)c2[nH]c(=O)[nH]c2[nH]1. The data set is classed as biochemical, Deinococcus geothermalis. Conditions: other: PB, pH 7.4, typically 30° C., UA 23.8-400 μM, 292 nm.
Protocol: as §4
Substrate in data set [6]: O=c1[nH]c(=O)c2[nH]c(=O)[nH]c2[nH]1
It is filed as biochemical, Arthrobacter globiformis. The method, then: as §1, §2, §3

Substrate in data set [7]: O=c1[nH]c(=O)c2[nH]c(=O)[nH]c2[nH]1
It is filed as biochemical, Deinococcus radiodurans. As to conditions: other: PB, pH 7.4, typically 30° C., UA 23.8-400 μM, 292 nm. Here is the method:
as §1, §2, §3

Substrate in data set [8]: O=c1[nH]c(=O)c2[nH]c(=O)[nH]c2[nH]1
It is filed as biochemical, Terriglobus saanensis. Conditions: other: PB, pH 7.4, typically 30° C., UA 23.8-400 μM, 292 nm. The method, then:
as §1, §2, §3

For orientation: Km means the substrate concentration at which the rate is half of its maximum. On to `O=c1[nH]c(=O)c2[nH]c(=O)[nH]c2[nH]1` [UA, uric acid], for which the Km amounted to 116 µM in data set [1] and 31.8 µM in data set [4]. In addition, the figures for the Vmax in data set [1] and in data set [3] (compared with Krystexxa) were 5.7 and 10.8, respectively. For the same molecule, the “better kcat/Km relative to Krystexxa” value in data set [2] (ratio to Krystexxa) and in data set [3] (ratio to Krystexxa) was about 2 fold in each case. The “better Km relative to Krystexxa” value in data set [2] (ratio to Krystexxa (55.7 versus 116.3)) came to 2 fold. Further, the “improved Vmax relative to Krystexxa” value in data set [3] (ratio to Krystexxa (10.8 versus 5.7)) amounted to 2 fold.
As to “Deinococcus geothermalis uricase, SEQ ID NO: 28 (amino terminal His tag) (Deinococcus geothermalis DSM 11300)”, the Km in data set [5] turned out to be 55.7 µM.

B1: Arthrobacter globiformis uricase, wt, SEQ ID NO: 27 (amino terminal His tag) (Arthrobacter globiformis) (protein)
chain: T1 sequence (D0VWQ1 1-302)
Turning to B1, the Km is 110 µM in data set [6] (other: PB, pH 7.4, typically 30° C., UA 23.8-400 μM, 292 nm, pH 7.4) and 55.7 µM in data set [6] (other: restated in text, compared with Krystexxa, 30.0 °C).

B2: Deinococcus radiodurans uricase, SEQ ID NO: 29 (amino terminal His tag) (Deinococcus radiodurans R1 = ATCC 13939 = DSM 20539) (protein)
chain: MMTGTQQPGTQPKVKVRLGENNYGKAEVQLMKIKRGTPRHELREAKVRVAMYGDFGAAHSEGDNTDLVATDTVRNTVYGLAKEGFESSIEEFGKELLTHFVKVGPRVTGGFAEFTEHLWERVQTPAQPQGHDHAFVRQMPKRTARVETQDGRRFTVTSGIEELYVLKTTESGWENYLLDERFTTLPETHDRVMATFVTAKWEYAVESCDYDAVWERVYRQIQHTFTDHYSPSLQRTLYLMGEAVLSVCPEISRIWFQMPNKHHLVYNLGRFGLENNNEILHVDPEPYGLMEAWVERAE
Consider B2, for which, in data set [7], the Km is 83.1 µM.

B3: Terriglobus saanensis uricase, SEQ ID NO: 32 (amino terminal His tag) (Terriglobus saanensis SP1PR4) (protein)
chain: MAKLIDSRYGKARVRVMKLDRSQPQHQLLEWTVRVLLEGDFETAHTVGDNSNILPTDTMKNTVYSRAKESKAETPEEFAIELAEFLLGRNPQVHTVEVKIETAMWKRLVVDGKPHGSSFMRGSDELGTVLHHATRETKTMVCGVENMVILKSQNSSFEGYIQDDLTTLKPTADRLFATAMTADWDYTDGGSAFAARREAIREAMLKAFAEHDSKSVQQTLYAMAEAAMAAVPAVNRVHMVMPNKHCLLVDLKHFGQENNNEIFVPTEDPHGYIEATVVRE
In the case of B3, in data set [8], the Km is 76.2 µM.
